GI50 and IC50 data for nine molecules are collected here from patent publication US20240352021A1 (DANA-FARBER CANCER INSTITUTE, INC., priority 2021, published 2024).

Where only a bound is given, the exact number is not on record here.

As usually defined, the IC50 is the concentration that gives 50% inhibition.

The target of test [1] is EGFR mutant L858R Ba/F3 cells (Homo sapiens, UniProt P00533, L858R, cells depend on it). Description: Ba/F3 cell proliferation (Cell Titer Glo), EGFR L858R. Type of test: cell-based, murine. The settings on record: 72 hours, Table 6, read-out: L858R BaF3. The method, boiled down:
(§1)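 Retrovirally transduced, puromycin-selected Ba/F3 cells expressing EGFR L858R or L858R/C797S, grown in RPMI + 10% FBS, exposed to compounds for 72 h in triplicate. Viability by Cell Titer Glo ATP luminescence; IC50 from sigmoidal dose-response fit, binned A <0.1, B 0.1–0.5, C 0.5–2.5, D ≥2.5 μM.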

Another test deals with EGFR L858R/T790M (Homo sapiens, UniProt P00533, L858R/T790M). Description: EGFR biochemical assay (headed HTRF-based; method describes Z'-LYTE), L858R/T790M. To be noted: Table 4. How it is done:
(§2) To measure the IC50 values of compounds herein against EGFR, a Z′-LYTE assay (ThermoFisher) was used. Briefly, 2.5 μL of different concentrations of the compounds in 4% DMSO were added to 5 μL kinase/peptide mixture in each well of a 384-well plate (Corning Cat. #3676). 2.5 μL of 4× ATP solution (4× ATP, 50 mM HEPES, pH 7.5, 0.01% BRIJ-35, 10 mM MgCl2, 1 mM EGTA) were added to each well. The plate was shaken for 30 seconds, and then incubated at room temperature for 60 minutes. 5 μL of a 1:100000 dilution of Development Reagent A was added to each well. The plate was then incubated for 60 mins at room temperature. 5 μL of the stop reagent was then added. The plate was subsequently read on a fluorescence plate reader, and the emissions ratio was calculated to determine the ratio of Ser/Thr 07 phosphorylated by the reaction. Emissions Ratio═Coumarin Emission (443 nm)/Flourescein Emission (520 nm).
(§3) HTRF-based EGFR assay data are provided below in Table 4.

Test [2] has as its target EGFR L858R/C797S Ba/F3 cells (Homo sapiens, UniProt P00533, C797S/L858R, cells depend on it). Description: Ba/F3 cell proliferation (Cell Titer Glo), EGFR L858R/C797S. Type of test: cell-based, murine. The settings on record: 72 hours, Table 6. The method, boiled down: as §1
For orientation: Cellular ATP, detected with luciferase, serves as a proxy for viable cell number.

The next test addresses EGFR L858R (Homo sapiens, UniProt P00533, L858R). As to the kind of experiment: EGFR biochemical assay (headed HTRF-based; method describes Z'-LYTE), L858R. The settings on record: Table 4. How it is done: as §2, §3

Sequence of EGFR L858R/T790M (P00533 25-1210 T790M/L858R): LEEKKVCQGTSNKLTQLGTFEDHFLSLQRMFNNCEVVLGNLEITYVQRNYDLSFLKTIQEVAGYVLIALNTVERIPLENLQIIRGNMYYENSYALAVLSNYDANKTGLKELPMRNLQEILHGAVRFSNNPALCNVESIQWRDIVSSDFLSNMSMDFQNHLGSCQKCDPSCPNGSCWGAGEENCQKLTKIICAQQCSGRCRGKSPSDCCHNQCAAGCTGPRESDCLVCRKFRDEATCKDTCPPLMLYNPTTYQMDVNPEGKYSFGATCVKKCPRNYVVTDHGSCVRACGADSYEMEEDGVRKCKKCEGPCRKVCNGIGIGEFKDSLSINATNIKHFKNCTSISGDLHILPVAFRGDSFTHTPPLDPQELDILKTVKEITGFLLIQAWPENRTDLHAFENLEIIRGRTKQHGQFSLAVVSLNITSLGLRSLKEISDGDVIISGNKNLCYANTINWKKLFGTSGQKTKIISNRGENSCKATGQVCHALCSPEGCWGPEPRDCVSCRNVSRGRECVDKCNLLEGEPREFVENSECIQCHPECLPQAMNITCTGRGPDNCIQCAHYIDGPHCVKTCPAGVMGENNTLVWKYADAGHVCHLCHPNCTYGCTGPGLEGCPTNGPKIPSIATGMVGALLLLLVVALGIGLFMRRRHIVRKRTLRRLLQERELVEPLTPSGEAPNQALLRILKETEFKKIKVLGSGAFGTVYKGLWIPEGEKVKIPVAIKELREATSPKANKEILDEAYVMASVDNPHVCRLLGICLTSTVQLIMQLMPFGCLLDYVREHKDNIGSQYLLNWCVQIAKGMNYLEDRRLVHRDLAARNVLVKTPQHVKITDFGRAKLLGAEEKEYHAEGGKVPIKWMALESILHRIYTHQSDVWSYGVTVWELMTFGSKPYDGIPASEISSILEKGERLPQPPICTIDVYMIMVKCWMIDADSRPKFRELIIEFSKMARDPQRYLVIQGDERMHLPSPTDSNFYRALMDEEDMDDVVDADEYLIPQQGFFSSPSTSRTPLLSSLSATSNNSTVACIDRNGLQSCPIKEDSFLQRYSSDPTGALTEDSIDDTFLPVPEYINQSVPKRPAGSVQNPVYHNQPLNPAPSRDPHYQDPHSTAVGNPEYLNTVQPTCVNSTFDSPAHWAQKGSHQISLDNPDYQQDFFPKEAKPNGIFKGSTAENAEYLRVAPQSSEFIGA
Sequence of EGFR L858R/C797S Ba/F3 cells (P00533 whole entry C797S/L858R): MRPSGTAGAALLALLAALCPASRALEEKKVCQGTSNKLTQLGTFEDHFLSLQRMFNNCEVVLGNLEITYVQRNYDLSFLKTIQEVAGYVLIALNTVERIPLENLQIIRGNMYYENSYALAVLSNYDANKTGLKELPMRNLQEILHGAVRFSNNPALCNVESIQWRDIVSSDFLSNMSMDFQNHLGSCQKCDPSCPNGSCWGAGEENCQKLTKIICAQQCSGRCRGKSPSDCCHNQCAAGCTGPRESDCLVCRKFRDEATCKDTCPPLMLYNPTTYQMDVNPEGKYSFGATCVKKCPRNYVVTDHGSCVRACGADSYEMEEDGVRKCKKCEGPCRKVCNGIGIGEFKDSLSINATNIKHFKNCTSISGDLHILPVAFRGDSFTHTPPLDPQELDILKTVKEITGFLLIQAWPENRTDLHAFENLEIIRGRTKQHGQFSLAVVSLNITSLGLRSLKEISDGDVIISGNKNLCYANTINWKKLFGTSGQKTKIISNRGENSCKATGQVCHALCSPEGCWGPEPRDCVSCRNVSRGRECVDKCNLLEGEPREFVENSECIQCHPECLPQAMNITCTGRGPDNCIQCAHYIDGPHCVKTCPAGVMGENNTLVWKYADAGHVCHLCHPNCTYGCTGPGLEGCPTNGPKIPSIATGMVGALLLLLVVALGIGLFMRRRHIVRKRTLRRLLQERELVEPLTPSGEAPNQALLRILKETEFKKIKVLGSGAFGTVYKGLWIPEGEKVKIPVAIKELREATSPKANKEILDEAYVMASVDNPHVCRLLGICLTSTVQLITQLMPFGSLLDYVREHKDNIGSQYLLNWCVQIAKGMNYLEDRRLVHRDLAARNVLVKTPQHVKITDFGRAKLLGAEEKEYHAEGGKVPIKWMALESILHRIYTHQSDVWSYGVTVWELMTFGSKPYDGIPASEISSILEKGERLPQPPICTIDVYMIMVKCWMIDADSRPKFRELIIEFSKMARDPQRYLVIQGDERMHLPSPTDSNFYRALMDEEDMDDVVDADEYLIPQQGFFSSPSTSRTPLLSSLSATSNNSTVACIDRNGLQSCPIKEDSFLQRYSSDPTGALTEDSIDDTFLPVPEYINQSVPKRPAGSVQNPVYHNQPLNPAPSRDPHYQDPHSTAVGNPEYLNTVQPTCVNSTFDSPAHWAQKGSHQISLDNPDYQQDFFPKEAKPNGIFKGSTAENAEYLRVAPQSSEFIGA
Sequence of EGFR L858R (P00533 25-1210 L858R): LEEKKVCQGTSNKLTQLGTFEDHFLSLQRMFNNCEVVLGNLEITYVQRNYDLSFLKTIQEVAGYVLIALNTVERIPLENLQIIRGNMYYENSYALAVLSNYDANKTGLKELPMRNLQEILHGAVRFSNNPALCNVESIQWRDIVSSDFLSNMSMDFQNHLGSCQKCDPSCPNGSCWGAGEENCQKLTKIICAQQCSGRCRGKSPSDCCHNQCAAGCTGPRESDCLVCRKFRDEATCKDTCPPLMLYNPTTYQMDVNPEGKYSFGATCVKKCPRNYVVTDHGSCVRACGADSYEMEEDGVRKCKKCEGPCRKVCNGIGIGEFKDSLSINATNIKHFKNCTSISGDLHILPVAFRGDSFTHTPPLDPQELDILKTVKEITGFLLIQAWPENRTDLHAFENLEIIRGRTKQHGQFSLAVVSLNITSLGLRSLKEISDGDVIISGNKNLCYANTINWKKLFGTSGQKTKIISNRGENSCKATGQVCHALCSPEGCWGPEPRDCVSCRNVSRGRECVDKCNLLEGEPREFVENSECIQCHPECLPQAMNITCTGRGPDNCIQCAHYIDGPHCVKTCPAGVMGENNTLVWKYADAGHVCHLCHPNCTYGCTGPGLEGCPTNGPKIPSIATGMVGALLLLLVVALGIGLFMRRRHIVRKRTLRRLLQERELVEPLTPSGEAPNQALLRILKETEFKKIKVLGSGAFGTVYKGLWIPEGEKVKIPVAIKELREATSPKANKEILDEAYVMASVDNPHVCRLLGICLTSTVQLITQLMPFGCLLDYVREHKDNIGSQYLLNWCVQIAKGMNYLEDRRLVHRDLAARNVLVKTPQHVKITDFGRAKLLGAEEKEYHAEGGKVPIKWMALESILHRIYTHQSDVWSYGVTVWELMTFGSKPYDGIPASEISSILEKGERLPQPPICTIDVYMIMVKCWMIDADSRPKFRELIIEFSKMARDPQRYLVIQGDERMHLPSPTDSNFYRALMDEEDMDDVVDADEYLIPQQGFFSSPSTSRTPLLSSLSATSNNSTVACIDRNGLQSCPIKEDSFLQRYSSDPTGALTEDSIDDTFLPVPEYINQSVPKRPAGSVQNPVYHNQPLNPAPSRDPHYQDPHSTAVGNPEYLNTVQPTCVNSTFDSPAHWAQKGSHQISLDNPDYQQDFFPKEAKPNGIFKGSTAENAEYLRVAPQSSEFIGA
Sequence of EGFR mutant L858R Ba/F3 cells (P00533 whole entry L858R): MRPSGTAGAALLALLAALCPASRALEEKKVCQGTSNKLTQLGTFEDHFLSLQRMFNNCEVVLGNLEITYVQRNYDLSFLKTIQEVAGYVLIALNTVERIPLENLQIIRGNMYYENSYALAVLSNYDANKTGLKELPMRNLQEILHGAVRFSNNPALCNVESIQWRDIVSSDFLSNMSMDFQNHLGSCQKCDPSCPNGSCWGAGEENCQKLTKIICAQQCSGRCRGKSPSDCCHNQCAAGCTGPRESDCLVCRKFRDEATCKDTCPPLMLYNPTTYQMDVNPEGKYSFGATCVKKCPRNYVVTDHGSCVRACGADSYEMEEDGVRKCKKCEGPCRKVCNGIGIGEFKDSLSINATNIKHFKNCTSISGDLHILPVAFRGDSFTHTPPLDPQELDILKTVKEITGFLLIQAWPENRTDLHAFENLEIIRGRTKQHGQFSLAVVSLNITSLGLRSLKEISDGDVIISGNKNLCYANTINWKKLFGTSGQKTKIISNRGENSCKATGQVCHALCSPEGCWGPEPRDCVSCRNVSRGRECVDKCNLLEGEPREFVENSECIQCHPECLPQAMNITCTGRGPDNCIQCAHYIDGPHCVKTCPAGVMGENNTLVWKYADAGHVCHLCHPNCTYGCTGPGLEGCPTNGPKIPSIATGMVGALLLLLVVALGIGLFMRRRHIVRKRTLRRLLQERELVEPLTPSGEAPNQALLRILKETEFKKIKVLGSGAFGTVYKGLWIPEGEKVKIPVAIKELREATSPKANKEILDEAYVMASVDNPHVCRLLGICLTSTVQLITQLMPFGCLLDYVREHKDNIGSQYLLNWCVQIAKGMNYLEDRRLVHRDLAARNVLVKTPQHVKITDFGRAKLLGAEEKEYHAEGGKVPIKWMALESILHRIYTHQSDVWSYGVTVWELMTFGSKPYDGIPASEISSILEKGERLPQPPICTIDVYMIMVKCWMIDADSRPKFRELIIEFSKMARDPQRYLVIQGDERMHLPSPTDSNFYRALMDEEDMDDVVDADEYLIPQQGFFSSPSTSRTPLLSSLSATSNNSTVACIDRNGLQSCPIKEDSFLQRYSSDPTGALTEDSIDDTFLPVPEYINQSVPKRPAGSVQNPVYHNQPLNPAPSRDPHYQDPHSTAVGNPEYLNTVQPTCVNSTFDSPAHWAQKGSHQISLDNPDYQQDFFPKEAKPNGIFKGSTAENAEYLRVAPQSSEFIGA

Consider `C=CC(=O)N1CCC(N2Cc3cnc(Nc4ccc(N5CCN(C)CC5)cc4)nc3N(C)C2=O)c2cccc(C(F)(F)F)c21` (stereo not drawn) [Compound 143, 1-methyl-7-[4-(4-methylpiperazin-1-yl)anilino]-S-[1-prop-2-enoyl-8-(trifluoromethyl)-3,4-dihydro-2H-quinolin-4-yl]-4H-pyrimido[4,5-d]pyrimidin-2-one], for which the GI50 in test [1] was 500 to 2500 nM; in test [2] it was at least 2500 nM. Also, the IC50 against EGFR L858R/T790M and against EGFR L858R was over 1000 nM throughout.
Regarding `C=C(CN1CCC(N2Cc3cnc(Nc4ccc(N5CCN(C)CC5)cc4)nc3N(C)C2=O)C1)C(=O)O` (stereo not drawn) [Compound 136, 2-[[3-[1-methyl-7-[4-(4-methylpiperazin-1-yl)anilino]-2-oxo-4H-pyrimido[4,5-d]pyrimidin-S-yl]pyrrolidin-1-yl]methyl]prop-2-enoic acid], the GI50 in test [1] and in test [2] was at least 2500 nM throughout. Further, the IC50 against EGFR L858R/T790M and against EGFR L858R was over 1000 nM each time.
In the case of `C=CC(=O)N1CCC(C)(N2Cc3cnc(Nc4cnn(CCO)c4)nc3N(C)C2=O)CC1` [Compound 125, 7-[[1-(2-hydroxyethyl)pyrazol-4-yl]amino]-1-methyl-S-(4-methyl-1-prop-2-enoyl-4-piperidyl)-4H-pyrimido[4,5-d]pyrimidin-2-one], the GI50 in test [1] and in test [2] was at least 2500 nM in each case. Besides, the IC50 against EGFR L858R/T790M and against EGFR L858R was over 100 nM each time.
In the case of `C=CC(=O)N1CC[C@H](N2Cc3cnc(Nc4ccc(N5CCN(C)CC5)cc4)nc3N(CCO)C2=O)c2cccc(C)c21` [Compound 153, 1-(2-hydroxyethyl)-7-[4-(4-methylpiperazin-1-yl)anilino]-S-[(4S)-8-methyl-1-prop-2-enoyl-3,4-dihydro-2H-quinolin-4-yl]-4H-pyrimido[4,5-d]pyrimidin-2-one], the GI50 in test [1] and in test [2] was under 100 nM throughout. Moreover, the IC50 at EGFR L858R/T790M is over 1000 nM; against EGFR L858R it was 0.88 nM.
For the molecule `C=C1CC[C@H]2C[C@@H](N3Cc4cnc(Nc5ccc(N6CCN(C)CC6)cc5)nc4N(C)C3=O)CCN2C1=O` [Compound 157, 1-methyl-S-(7-methylene-6-oxo-2,3,4,8,9,9a-hexahydro-1 H-quinolizin-2-yl)-7-[4-(4-methylpiperazin-1-yl)anilino]-4H-pyrimido[4,5-d]pyrimidin-2-one], the GI50 in test [1] and in test [2] was at least 2500 nM each time. Further, the IC50 against EGFR L858R/T790M and against EGFR L858R was over 1000 nM each time.
With `C=CC(=O)N1CCC(N2Cc3cnc(Nc4ccc(N5CCN(C)CC5)cc4)nc3N(C)C2=O)c2cccc(O)c21` (stereo not drawn) [Compound 133], the GI50 in test [1] and in test [2] was under 100 nM each time. The IC50 at EGFR L858R/T790M came out at 10 nM; against EGFR L858R, 1.13 nM.
As for `C=CC(=O)N1CCC(N2Cc3cnc(Nc4ccc(N5CCN(C)CC5)cc4)nc3N(C)C2=O)c2cccc(Cl)c21` (stereo not drawn) [Compound 147, 3-(8-chloro-1-prop-2-enoyl-3,4-dihydro-2H-quinolin-4-yl)-1-methyl-7-[4-(4-methylpiperazin-1-yl)anilino]-4H-pyrimido[4,5-d]pyrimidin-2-one], the GI50 in test [1] was 500 to 2500 nM; in test [2], at least 2500 nM. For the same molecule, the IC50 at EGFR L858R/T790M and at EGFR L858R was over 1000 nM in each case.
For `C=CC(=O)N1CC[C@@H](N2Cc3cnc(Nc4ccc(N5CCN(C)CC5)cc4)nc3N(C)C2=O)c2cccc(O)c21` (single isomer, unassigned) [Compound 155], the GI50 is under 100 nM in test [1] and 100 to 500 nM in test [2]. Also, the results for the IC50 against EGFR L858R/T790M and on EGFR L858R were 85.7 nM and 12.3 nM, respectively.
The matching figures for `C=CC(=O)N1CC[C@H](N2Cc3cnc(Nc4ccc(CS(C)(=O)=O)cc4)nc3N(C)C2=O)c2cccc(C)c21` [Compound 144]: under 100 nM, under 100 nM, over 1000 nM and 1.57 nM.
